Measured values reported in patent publication US10301314B2, “Compounds and methods for the prevention and treatment of tumor metastasis and tumorigenesis” (The United States of America, as represented by the …, priority 2011, dated 2019).

Assays:
[1] = system: PC3M cell line that stably expresses GFP-PTB to mark PNCs; experiment: High content assay for PNC detection (reduction of PNC prevalence); assay type: cell-based, human; settings: Table 4, PC3M GFP-PTB cells, 16 hrs incubation; for IC50: Homo sapiens, PC-3M
Text: The quantitative output for this assay is the reduction of PNC prevalence. The PNC can be detected in living cells by the expression of a green fluorescent protein (GFP) tagged to the PNC localized protein, PTB. A PC3M cell line was used that stably expresses GFP-PTB to mark PNCs. This method eliminates the need for immunofluorescent staining.
The IN Cell Analyzer 1000 automated fluorescent imaging system (GE Healthcare, Piscataway, N.J.) was used for automated image acquisition. […] The instrument acquired images of each well in a 1536-well plate with a laser-based autofocus system. To score PNC prevalence in a high-content throughput, the Multi-Target Analysis (MTA) algorithm (GE Healthcare, Investigator v3.5) to identify individual cells and granules (PNCs) within these cells was used. The nucleus was segmented via a region growing method (50 μm^2 minimum area) with light shading and noise removal to allow “touching” nuclei to be separated. Granules in the nucleus (PNCs) were segmented using a multiscale top hat method, which measures granules of 1 to 2 μm in size and used a smart masking method to identify the boundaries of each segmented granule. The algorithm was optimized and validated using positive and negative controls (50 μM camptothecin and DMSO, respectively). In particular, the MTA algorithm allows for the identification of multiple subcellular compartments and organelles (or granules) within those compartments. In this instance, the algorithm's capability to identify objects within the same color channel that only differ in size or fluorescent intensity was utilized. Also, the algorithm allows for building complex hierarchical classification systems, using output measures within the algorithm to filter and define subpopulations. For this particular assay, PNC-positive cells were scored when 1 to 3 PNC granules were detected per nucleus. Cells that contained 0 granules were scored as PNC negative, and cells with >3 granules were assumed to be false positives (very few cells have more than 3 PNCs in one focus plane), and were also scored as PNC negative.

[2] = system: PC3M reporter cell line stably expressing the PTB-GFP; experiment: ATP quantitation assay (ATPLite); assay type: cell-based, human; settings: Homo sapiens, PC-3M, Table 4, PC3M cells, 24 hrs incubation
Experimental: This follow-up assay was conducted to measure the effect of compounds on cell health by measuring ATP levels (ATPLite™). ATPLite™ is an ATP monitoring system based on firefly (Photinus pyralis) luciferase. The level of ATP in a metabolically active cell is a general marker for its viability. ATP levels are often reduced during necrosis or apoptosis. In this assay, the luciferase enzyme catalyzes the conversion of the added substrate D-luciferin to oxyluciferin and light with ATP. Thus, the emitted light is proportional to the ATP concentration. For this assay, the highly metastatic PC3M reporter cell line stably expressing the PTB-GFP was provided by Professor Sui Huang of Northwestern University. The media and cell culture reagents were purchased from Invitrogen (Carlsbad, Calif.), ATPLite™ came from PerkinElmer.

SMILES	IC50 [1]	IC50 [2]	PNC IC50(μM) [1]
COC(Cn1cnc2c(c(-c3ccccc3)c(-c3ccccc3)n2Cc2ccccc2)c1=N)OC	5.9 µM	38.3 µM	
N=c1c2c(-c3ccccc3)c(-c3ccccc3)n(CCc3ccccc3)c2ncn1[C@H]1CC[C@H](O)CC1 [Compound 3]	0.047 µM	9.61 µM	
N=c1c2c(-c3ccccc3)c(-c3ccccc3)n(CCc3ccccc3)c2ncn1CCO [Compound 5]	0.187 µM	19.2 µM	
N=c1c2c(-c3ccccc3)c(-c3ccccc3)n(Cc3ccco3)c2ncn1CCO [Compound 7]	0.628 µM	20.4 µM	
N=c1c2c(-c3ccccc3)c(-c3ccccc3)n(CCc3ccccc3)c2ncn1CCCO [Compound 9]	0.148 µM	19.2 µM	
N=c1c2c(-c3ccccc3)c(-c3ccccc3)n(Cc3ccccc3)c2ncn1CCN [Compound 18]		76.4 µM	inactive
CN(C)CCn1cnc2c(c(-c3ccccc3)c(-c3ccccc3)n2Cc2ccccc2)c1=N [Compound 19]	0.935 µM	24.1 µM	
CN(C)CCn1cnc2c(c(-c3ccccc3)c(-c3ccccc3)n2CCc2ccccc2)c1=N [Compound 20]	0.469 µM	96.1 µM	
CN(C)CCCn1cnc2c(c(-c3ccccc3)c(-c3ccccc3)n2Cc2ccccc2)c1=N [Compound 21]	7.43 µM	24.1 µM	
CN(C)CCCn1cnc2c(c(-c3ccccc3)c(-c3ccccc3)n2CCc2ccccc2)c1=N [Compound 22]	7.43 µM	24.1 µM	
N=c1c2c(-c3ccccc3)c(-c3ccccc3)n(Cc3ccccc3)c2ncn1C1CCN(Cc2ccccc2)CC1 [Compound 23]	4.69 µM	121 µM	
N=c1c2c(-c3ccccc3)c(-c3ccccc3)n(CCc3ccccc3)c2ncn1C1CCN(Cc2ccccc2)CC1 [Compound 24]	1.87 µM	24.1 µM	
COCCn1cnc2c(c(-c3ccccc3)c(-c3ccccc3)n2Cc2ccccc2)c1=N [Compound 25]	1.87 µM	60.7 µM	
COCCn1cnc2c(c(-c3ccccc3)c(-c3ccccc3)n2CCc2ccccc2)c1=N [Compound 26]	3.72 µM	60.7 µM	
COC(Cn1cnc2c(c(-c3ccccc3)c(-c3ccccc3)n2CCc2ccccc2)c1=N)OC [Compound 29]	23.5 µM	27.1 µM	

Other lines, results leading:

IC50 [1]	IC50 [2]	PNC IC50(μM) [1]	SMILES
0.118 µM	76.4 µM		N=c1c2c(-c3ccccc3)c(-c3ccccc3)n(Cc3ccccc3)c2ncn1CCO [Compound 4]
1.48 µM	48.2 µM		COc1ccc(Cn2c(-c3ccccc3)c(-c3ccccc3)c3c(=N)n(CCO)cnc32)cc1 [Compound 6]
3.97 µM	64.6 µM		N=c1c2c(-c3ccccc3)c(-c3ccccc3)n(Cc3ccco3)c2ncn1CCCO [Compound 11]
	24.1 µM	inactive	N=c1c2c(-c3ccccc3)c(-c3ccccc3)n(Cc3ccccc3)c2ncn1CCCCO [Compound 12]
0.235 µM	15.2 µM		N=c1c2c(-c3ccccc3)c(-c3ccccc3)n(CCc3ccccc3)c2ncn1CCCCO [Compound 13]
1.18 µM	24.1 µM		COc1ccc(Cn2c(-c3ccccc3)c(-c3ccccc3)c3c(=N)n(CCCCCO)cnc32)cc1 [Compound 14]
0.372 µM	24.1 µM		N=c1c2c(-c3ccccc3)c(-c3ccccc3)n(Cc3ccccc3)c2ncn1CCCCCO [Compound 15]
0.59 µM	38.3 µM		N=c1c2c(-c3ccccc3)c(-c3ccccc3)n(CCc3ccccc3)c2ncn1CCCCCO [Compound 16]
1.18 µM	30.4 µM		COc1ccc(Cn2c(-c3ccccc3)c(-c3ccccc3)c3c(=N)n(CCCCO)cnc32)cc1 [Compound 17]
1.18 µM	24.1 µM		COCCn1cnc2c(c(-c3ccccc3)c(-c3ccccc3)n2Cc2ccc(OC)cc2)c1=N [Compound 27]
5.9 µM	24.1 µM		COc1ccc(Cn2c(-c3ccccc3)c(-c3ccccc3)c3c(=N)n(CC(OC)OC)cnc32)cc1 [Compound 30]
